{
  "source": "patent US20190040025A1",
  "about": "“INDOLEAMINE 2,3-DIOXYGENASE INHIBITOR, PREPARATION METHOD THEREFOR, AND APPLICATION” (Jiangsu Hansoh Pharmaceutical Group Co., Ltd., priority 2016, published 2019)",
  "key": {"[1]": {"biological_target": "T1, Human indoleamine 2,3-dioxygenase (IDO) (Homo sapiens, UniProt P14902)", "T1 construct": "purchased BPS Bioscience Inc", "T1 sequence (P14902 whole entry)": "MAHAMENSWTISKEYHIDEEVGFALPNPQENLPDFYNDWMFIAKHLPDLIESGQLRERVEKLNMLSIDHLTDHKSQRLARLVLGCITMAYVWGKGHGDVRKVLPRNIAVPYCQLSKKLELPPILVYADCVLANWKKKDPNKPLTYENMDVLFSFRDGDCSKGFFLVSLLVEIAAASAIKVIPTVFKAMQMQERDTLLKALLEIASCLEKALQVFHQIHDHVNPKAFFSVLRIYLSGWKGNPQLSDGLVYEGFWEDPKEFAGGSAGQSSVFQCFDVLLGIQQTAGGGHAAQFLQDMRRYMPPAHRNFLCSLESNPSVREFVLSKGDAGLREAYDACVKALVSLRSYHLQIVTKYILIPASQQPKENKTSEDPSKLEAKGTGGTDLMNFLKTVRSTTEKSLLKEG", "experiment": "Enzymatic test for IDO activity inhibition", "assay_type": "biochemical", "conditions": "40 nM IDO enzyme, 0.2 mM L-tryptophan, 60 minutes at 30° C.", "experimental": "Human indoleamine 2,3-dioxygenase (IDO) was purchased from BPS Bioscience Inc. The enzymatic reaction of idoleamine 2,3-dioxygenase (IDO) was performed in a 96-well plate with a reaction volume of 20 μL. The reaction conditions were: 40 nM IDO enzyme, 0.2 mM L-tryptophan, 50 mM KPB (pH 6.5) buffer, 20 mM sodium L-L-ascorbate, 10 μM methylene blue, 0.2 mg/mL catalase, different concentrations of compounds containing <1% dimethyl sulfoxide. After reacting for 60 minutes at 30° C., 5 μL of 30% (w/v) trichloroacetic acid (in 50 mM KPB buffer) weres added to each well. The plate was incubated for 30 minutes at 50° C. to hydrolyze N-formyl-kynurenine to kynurenine. 25 μL of 2% (w/v) p-(dimethylamino)benzaldehyde (p-DMBA)/glacial acetic acid solution were added to each well. The absorbance at 490 nm was read on a BioTek Synergy H1 microplate reader […].\nThe stock solution of the test compound was prepared to 10 mM with dimethyl sulfoxide, diluted with dimethyl sulfoxide to the highest concentration of the test during the experiment, then diluted in 1:3 gradient, and generally diluted to 8 to 10 concentration points. Duplicate wells were set for each concentration point, and one reference compound was included in each experiment. The original data of the absorbance at 490 nm read on a microplate reader were analyzed. The inhibition of IDO enzyme activity was calculated at different concentrations of the test compound. The half-inhibitory concentration IC50 value of the compound was obtained by non-linear fitting analysis of inhibition percentage data by GraphPad Prism software."}, "[2]": {"biological_target": "T2, indoleamine 2,3-dioxygenase (IDO) in HeLa cells (Homo sapiens, UniProt P14902)", "T2 construct": "Interferon γ induced the expression of IDO in HeLa cells; host or cells: HeLa cells induced with interferon γ", "T2 sequence (P14902 whole entry)": "as above", "experiment": "Cell model test for IDO activity inhibition (interferon γ induced HeLa cells)", "assay_type": "cell-based", "conditions": "interferon γ 50 ng/mL, 24 hours, read-out: Cytological Test IC50", "experimental": "Interferon γ induced the expression of IDO in HeLa cells. This model was used to test the inhibitory activity of compounds on indoleamine 2,3-dioxygenase (IDO). The culture medium of HeLa cells (ATCC) was phenol red-free RPMI-1640 containing 100 μM L-tryptophan. The stock solution of the test compound was prepared to 10 mM with dimethyl sulfoxide, and diluted with dimethyl sulfoxide to the highest concentration of the test during the experiment, then diluted in three-fold gradient, and generally diluted to 8 to 10 concentration points. Duplicate wells were set for each concentration point. The final concentration of DMSO was 0.5%, and internal reference compound was included in each experiment.\nThe procedure of the experiment was as follows: 20,000 HeLa cells (ATCC) per well were added on a 96-well culture plate and incubated overnight. After 24 hours, interferon γ (final concentration of 50 ng/mL) and different concentrations of the test compound and the internal reference compound were added to the incubated cells. After 24 hours, 140 μL of the supernatant/well was transferred to a new 96-well plate, and 10 μL of 6.1 N trichloroacetic acid was added to each well. The plate was incubated for 30 minutes at 50° C. to hydrolyze N-formyl-kynurenine to kynurenine. The reaction mixture was centrifuged at 2500 rpm for 10 minutes to remove the precipitate, and the supernatant (100 μL) was transferred to another new 96-well plate. 100 μL of 2% (W/V) p-(dimethylamino)benzaldehyde (p-DMBA)/glacial acetic acid solution was added to each well. The absorbance at 490 nm was read on a BioTek Synergy H1 microplate reader […].\nThe original data of the absorbance at 490 nm read on a microplate reader were analyzed. The inhibition of IDO enzyme activity was calculated at different concentrations of the test compound. The half-inhibitory concentration IC50 value of the compound was obtained by non-linear fitting analysis of inhibition percentage data by GraphPad Prism software."}, "[3]": {"experiment": "Pharmacokinetic (PK) analysis of rat plasma", "assay_type": "in vivo", "conditions": "Sprague-Dawley, po, 20 mg/kg, SD rats, single gavage, 20 mg/10 mL/kg", "experimental": "The pharmacokinetics test of the test compound was performed with Sprague Dawley (SD) rats (Shanghai Slac Laboratory Animal Co., LTD).\nMode of administration: Single gavage.\nU Dosage: 20 mg/10 mL/kg.\nFormulation prescription: 3% dimethylacetamide and 20% hydroxypropyl-3-cyclodextrin.\nSampling points: before administration and 15 minutes, 0.5, 1, 2, 4, 6, 8 and 24 hours after administration.\nPlasma sampling and sample processing: • 1) 0.2 ml of intravenous blood was collected and placed in an EDTA-2K tube. The blood was centrifuged at 4° C. for 5 minutes at 6,000 rpm to separate the plasma, which was stored at −80° C. • 2) 160 μL of acetonitrile were added to 40 μL of plasma sample, standard, and internal reference. The mixture was shaken vertically for 3 minutes, and centrifuged at 4000 rpm for 10 minutes. 100 μL of the supernatant were taken, and then added with 100 μL of deionized water and mixed well. 100 μL of the resulting solution was taken for LC/MS/MS analysis. The instrument for plasma LC/MS/MS analysis was AB Sciex API 4000.\nLiquid Chromatography Analysis: • Liquid chromatography conditions: Shimadzu LC-20AD pump • Chromatographic column: phenomenex Gemiu 5 μm C18 50×4.6 mm • Mobile phase: solution A was 0.1% formic acid solution, and solution B was acetonitrile • Flow rate: 0.8 mL/min • Elution time: 0-3.01 minutes and the eluent was as follows:\n• Mass spectrometry analysis: setup conditions of mass spectrometer: positive ion electrospray ionization (ESI) mode. • Experimental results: the main parameters of pharmacokinetics were calculated by WinNonlin 6.1 and the experimental results are shown in the following table: […]"}},
  "data": [
    {"smiles": "CS(=O)(CCNc1nonc1/C(=N/O)Nc1ccc(F)c(Br)c1)=NS(=O)(=O)C1CC1", "note": "(stereo not drawn) [Example 15, (Z)—N-(3-bromo-4-fluorophenyl)-4-((2-(N-(cyclopropylsulfonyl)-S-methylsulfonimidoyl)ethyl)amino)-N′-hydroxy-1,2,5-oxadiazole-3-carboximidamide]", "values": [
      {"measurement": "IC50", "setting": "[1]", "result": 0.027, "unit": "µM"},
      {"measurement": "IC50", "setting": "[2]", "result": 0.01, "unit": "µM"},
      {"measurement": "AUC(0-inf)", "setting": "[3]", "result": 5.18, "unit": "µg·h/mL"},
      {"measurement": "Cmax", "setting": "[3]", "result": 1.35, "unit": "µg/mL"},
      {"measurement": "Tmax", "setting": "[3]", "result": 0.5, "unit": "h"},
      {"measurement": "half-life", "setting": "[3]", "result": 3.54, "unit": "h"}
    ]}
  ]
}
